For one test, the system named is MDA-MB-231. Put plainly: Cell viability, MDA-MB-231. The settings on record: Homo sapiens, MDA-MB-231, MDA-MB-231. In kind it is cell-based.
The next test has as its system UKE1. As to the kind of experiment: Cell viability, UKE1. In kind it is cell-based. The settings on record: UKE1, UKE1.
Test [1] has as its target T1, ACK1 (Homo sapiens, UniProt Q07912). Put plainly: DSF = Differential Scanning Fluorimetry, thermal shift. It counts as binding. Background: DSF heats the sample and reads unfolding from a dye or from intrinsic fluorescence.
The target of test [2] is T1, ACK1. As to the kind of experiment: ACK1 inhibition (ACK1 IC50). In kind it is biochemical.

Where only a bound is given, the exact number is not on record here.

T1 sequence (Q07912 whole entry): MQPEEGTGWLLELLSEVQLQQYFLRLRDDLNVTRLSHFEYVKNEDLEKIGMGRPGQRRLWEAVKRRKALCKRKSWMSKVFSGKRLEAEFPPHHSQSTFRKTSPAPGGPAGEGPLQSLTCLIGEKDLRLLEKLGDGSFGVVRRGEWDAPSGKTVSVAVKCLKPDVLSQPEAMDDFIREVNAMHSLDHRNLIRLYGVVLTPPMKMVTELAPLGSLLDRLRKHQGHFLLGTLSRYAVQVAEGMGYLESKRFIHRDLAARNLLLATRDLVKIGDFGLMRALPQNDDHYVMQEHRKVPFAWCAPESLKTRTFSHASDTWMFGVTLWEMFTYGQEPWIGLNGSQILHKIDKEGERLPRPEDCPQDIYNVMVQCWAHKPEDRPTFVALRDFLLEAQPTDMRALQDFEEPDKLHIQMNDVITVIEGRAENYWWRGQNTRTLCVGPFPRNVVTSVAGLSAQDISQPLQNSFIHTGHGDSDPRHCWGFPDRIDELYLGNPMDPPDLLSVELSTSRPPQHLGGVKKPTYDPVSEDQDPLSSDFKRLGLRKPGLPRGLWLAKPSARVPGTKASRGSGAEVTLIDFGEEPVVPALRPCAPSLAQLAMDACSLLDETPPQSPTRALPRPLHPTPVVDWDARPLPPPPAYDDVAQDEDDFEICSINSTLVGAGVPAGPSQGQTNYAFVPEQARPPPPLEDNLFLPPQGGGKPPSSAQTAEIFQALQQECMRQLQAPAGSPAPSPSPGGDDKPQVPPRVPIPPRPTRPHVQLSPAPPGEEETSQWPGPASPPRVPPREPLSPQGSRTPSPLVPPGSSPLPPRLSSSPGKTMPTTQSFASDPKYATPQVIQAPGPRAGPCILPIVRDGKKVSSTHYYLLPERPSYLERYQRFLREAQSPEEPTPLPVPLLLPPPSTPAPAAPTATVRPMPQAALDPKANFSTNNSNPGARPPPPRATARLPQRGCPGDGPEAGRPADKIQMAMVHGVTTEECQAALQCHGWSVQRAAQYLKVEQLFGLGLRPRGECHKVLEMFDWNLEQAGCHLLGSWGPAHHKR

For `COc1cc(N2CCN(C)CC2)c(F)cc1Nc1ncc2ccn(-c3cccc(NS(=O)(=O)C(C)C)c3)c2n1`, the EC50 (commonly the concentration giving half of the maximal effect) was determined as 1580 nM in the test on MDA-MB-231 and 940 nM with UKE1. The “DSF (ΔTm (° C.))” value on ACK1 [1] stood at 4.8 °C. In addition, on ACK1 [2], the IC50 (commonly the concentration needed to halve the response being measured) is less than 250 nM.

For `CC(C)S(=O)(=O)Nc1cccc(-n2ccc3cnc(Nc4ccc(N5CCN(C)CC5)c(F)c4)nc32)c1`, the EC50 in the test with MDA-MB-231 is 462 nM; in the test with UKE1 it was 74 nM. The “DSF (ΔTm (° C.))” value at ACK1 [1] was found to be 4.5 °C. On ACK1 [2], this molecule displayed an IC50 of less than 250 nM.

Values taken from patent US20240228502A1, “2-PHENYLAMINO PYRROLOPYRIMIDINES AS ACK1 INHIBITORS” (H. LEE MOFFITT CANCER CENTER AND RESEARCH INSTITUTE, INC., priority 2021, published 2024).
